Reference: patent US4061637A, “Certain 4-aryl-5-(4-phenylpiperazino)alkyl-4-thiazolin-2-ones” (priority 1974, dated 1977)
In brackets after ≈: the same amount, converted by molar mass. Structures can show the parent of a compound that is named as a salt.

Experiments:
[1] = Fibrillation induced by CaCl2 of the rat anaesthetised with urethane (anti-arrhythmic activity); type: in vivo; conditions: for selectivity ratio: in vivo, LD50 rat iv / ED50 CaCl2, read-out: I.T. (1), therapeutic index from the ratio LD50 rat iv/ED50; for ED50: rat anaesthetised with urethane, iv
Method: Fibrillation induced by CaCl2 of the rat anaesthetised with urethane (1 g/kg ip)
The method described by Malinow and colleagues (Rev. Argent. Cardiol., 19, 120, 1952) was followed, which consists of inducing cardiac fibrillation by administering intravenously 2 ml/kg of an 8% solution of CaCl2 in rats pretreated intravenously with scalar doses of anti-arrhythmics. The ED50 was calculated for each active drug.

nor-adrenalin = assay: Antagonism towards a lethal dose of nor-adrenalin in the rat (α-adrenolytic activity); type: in vivo
Method: Antagonism towards a lethal dose of nor-adrenalin in the rat
The animals are treated with a dose of nor-adrenalin (0.5 mg/kg) which is 100% lethal in animals. The activity is calculated by the number of animals protected from death by prior administration of the drug under examination one hour before the agonist. Where possible the ED50 was calculated.

[2] = Acute toxicity under LD50 mouse; conditions: in vivo, ip
[3] = Pinching the tail of the mouse (systemic analgesic activity); type: in vivo; conditions: po, 0.5 h, mouse, 30 minutes; for inhibition in vivo at 26 mg/kg: 26 mg/kg os
Method: To evaluate the analgesic activity, the method described by Bianchi and colleagues (Brit. J. Pharmacol., 9, 280, 1954) was followed which consists of applying an arterial pincer to the base of the tail in animals treated orally 30 minutes previously with the drug under examination, observing that the control animals react to the pain by squealing.

[4] = system: Rabbit platelet aggregation; assay: Rabbit platelet aggregation in vitro; type: cell-based; conditions: Oryctolagus cuniculus, rabbit PRP, aggregation by sodium adenosine diphosphate, read-out: Platelet anti-aggregation activity, rabbit in vitro ED50
Method: Rabbit platelet aggregation in vitro The method of […] (Pharmacology, 7, 115, 1972) was followed. Blood taken from conscious rabbits is centrifuged in the presence of sodium citrate (3.8%) at 350 g. for 10 minutes, so as to separate the plasma rich in platelets (PRP) from the rest. The aggregation of the platelets is carried out by bringing the PRP into contact with adequate doses of sodium adenosine diphosphate in the presence of a possible inhibitor or its carrier. The measurement of aggregation is made continuously by a turbidimetric method.

[5] = Antagonism towards electric shock convulsions in the mouse; type: in vivo; conditions: po, 0.5 h, mouse, 35 volt, read-out: Anti-convulsion activity, electric shock, mouse, % att.; for inhibition in vivo at 26 mg/kg: 26 mg/kg os
Method: This is evaluated by observing the protection given by pretreatment with the drug (30 minutes) against tonic convulsions obtained by applying a 35 volt current to the eyeballs.

[6] = Inhibition of spontaneous motility in the mouse; type: in vivo; conditions: mouse; for ED50: po, 0.5 h, os, 30 minutes after treatment, read-out: Spontaneous motility inhibition mouse ED50
Method: This is evaluated by an actophotometric method, which consists of placing the mice, 30 minutes after oral treatment with the drug or the carrier, in a cage provided with a photoelectric cell counter and counting the number of times the photoelectric cell is passed during a 10 minute stay.

[7] = Acute toxicity rat LD50 iv; conditions: in vivo
isolated rabbit atrium = assay: Arrhythmias induced by electrical stimulation of the isolated rabbit atrium (anti-arrhythmic activity); conditions: for EC30: Oryctolagus cuniculus, read-out: anti-arrhythmic activity, Electrical stimulation in isolated rabbit atrium ED30
Method: (§1) The ED30 in the presence of scalar concentrations of anti-arrhythmic substances was measured.

[8] = as above; conditions: TD / ED30, isolated rabbit atrium; read-out: I.T. (2), therapeutic index from the ratio TD/ED30
Method: as §1

[9] = Ulcers by constriction (stress) in the rat; type: in vivo; conditions: 4 h, rat; for responders at 10 mg/kg / inhibition in vivo at 10 mg/kg: 10 mg/kg ip
Method: The method described by Rossi and colleagues (Compt. Rend. Soc. Biol., 150, 2124, 1956) was followed in which the formation of gastric ulcers is induced by immobilising the animal, in a state of fast for 48 hours, in a net for a period of 4 hours.
The protection given by treatment with the drug under examination before the beginning of the constriction period is evaluated by counting both the ulcers and the number of subjects without ulcers.

[10] = Carrageen oedema in the conscious rat (anti-inflammatory activity); type: in vivo
Method: Anti-inflammatory activity was evaluated by the method of Winter and colleagues (Proc. Soc. Exp. Biol., 111, 544, 1962) by endoperitoneally injecting the product under examination one hour before inducing oedema by injecting 0.05 ml. of a 1% suspension of carrageen (intradermally into the plantar portion of a rear paw).
The difference between the volume of the paw determined plethysmographically one hour before and three hours after the carrageen gives a quantitative estimate of the activity of the product tested. Where possible, the ED30 was calculated.

[11] = Cataleptic activity in the mouse; type: in vivo; conditions: po; mouse, os; read-out: Cataleptic activity mouse ED50
[12] = read-out: Anti-ulcer activity, ulcers by stress in the rat, Protected rats %
[13] = read-out: Anti-ulcer activity, ulcers by stress in the rat, Reduction in ulcers %

Q: What does the source list for CCN(CC)CCc1sc(=O)[nH]c1-c1ccc(F)cc1 [LR 602, 4-p-fluorophenyl-5-β-diethylaminoethyl-4-thiazolin-2-one]?
A: selectivity ratio [1]: 24; ED50 [1]: 3.5 mg/kg; α-adrenolytic activity lethal NA rat, percentage activity (ED50 lacking) (nor-adrenalin; 7 mg/kg os): 0%; LD50 [2]: 125 mg/kg; inhibition in vivo at 26 mg/kg [3]: 30%; IC50 [4]: 800 mg/L (≈ 2720 µM); inhibition in vivo at 26 mg/kg [5]: 0%; ED50 [6]: 30 mg/kg; LD50 [7]: 84 mg/kg; EC30 (isolated rabbit atrium): 10 mg/L (≈ 34 µM); TD (dose which abolishes the spontaneous contraction of the atrium) (isolated rabbit atrium; rabbit): 300 µg/mL; selectivity ratio [8]: 30; responders at 10 mg/kg [9, 12]: 50%; inhibition in vivo at 10 mg/kg [9, 13]: 65%

Q: Which selectivity ratio [1] does the source give for Cl.O=c1[nH]c(-c2ccc(F)cc2)c(CCN2CCCCC2)s1 [LR 617, 4-p-fluorophenyl-5-β-piperidinoethyl-4-thiazolin-2-one hydrochloride] here?
A: Its selectivity ratio is 15.

Q: And the ED50 [1]?
A: The ED50 was 4 mg/kg.

Q: And the “α-adrenolytic activity lethal NA rat, percentage activity (ED50 lacking)” value (nor-adrenalin; 5 mg/kg os)?
A: The value was 0%.

Q: What about the LD50 [2] of the same molecule?
A: Its LD50 is 100 mg/kg.

Q: What about the IC50 [4] of the same molecule?
A: Its IC50 is 800 mg/L.

Q: And the ED50 [6]?
A: The ED50 was 19.6 mg/kg.

Q: And the LD50 [7]?
A: Its LD50 is 62 mg/kg.

Q: What about the EC30 (isolated rabbit atrium) of the same molecule?
A: The EC30 was 4.3 mg/L.

Q: And the “TD (dose which abolishes the spontaneous contraction of the atrium)” value (from here on “TD”) (isolated rabbit atrium; rabbit)?
A: Its value is 300 µg/mL.

Q: And the selectivity ratio [8]?
A: The selectivity ratio was 69.

Q: What about the responders at 10 mg/kg [9, 12] of the same molecule?
A: Its responders at 10 mg/kg is 10%.

Q: And the inhibition in vivo at 10 mg/kg [9, 13]?
A: Its inhibition in vivo at 10 mg/kg is 17%.

Q: With Cl.O=c1[nH]c(-c2ccc(F)cc2)c(CCN2CCOCC2)s1 [LR 618, 4-p-fluorophenyl-5-β-morpholinoethyl-4-thiazolin-2-one hydrochloride] as the molecule, how does the selectivity ratio [1] read?
A: The selectivity ratio was 9.

Q: What about the ED50 [1] of the same molecule?
A: The ED50 was 15 mg/kg.

Q: And the “α-adrenolytic activity lethal NA rat, percentage activity (ED50 lacking)” value (nor-adrenalin; 15 mg/kg os)?
A: The value was 0%.

Q: What about the LD50 [2] of the same molecule?
A: The LD50 was 250 mg/kg.

Q: What about the “Anti-inflammatory activity carrageenin oedema rat, percentage activity (ED30 lacking)” value ([10]; 60 mg/kg ip) of the same molecule?
A: Its value is 9.8%.

Q: And the inhibition in vivo at 60 mg/kg ([3]; 60 mg/kg os, read-out: Systemic analgesic activity, tail pinching in mouse, %)?
A: Its inhibition in vivo at 60 mg/kg is 40%.

Q: What about the IC50 [4] of the same molecule?
A: The IC50 was 650 mg/L.

Q: And the inhibition in vivo at 60 mg/kg ([5]; 60 mg/kg os)?
A: The inhibition in vivo at 60 mg/kg was 10%.

Q: And the ED50 [6]?
A: The ED50 was 60 mg/kg.

Q: What about the LD50 [7] of the same molecule?
A: The LD50 was 130 mg/kg.

Q: What about the EC30 (isolated rabbit atrium) of the same molecule?
A: The EC30 was 35.4 mg/L.

Q: And the “TD” value (isolated rabbit atrium; rabbit)?
A: The value was 300 µg/mL.

Q: And the selectivity ratio [8]?
A: Its selectivity ratio is 8.5.

Q: And the responders at 30 mg/kg ([9]; 30 mg/kg ip, read-out: Anti-ulcer activity, ulcers by stress in the rat, Protected rats %)?
A: Its responders at 30 mg/kg is 50%.

Q: What about the inhibition in vivo at 30 mg/kg ([9]; 30 mg/kg ip, read-out: Anti-ulcer activity, ulcers by stress in the rat, Reduction in ulcers %) of the same molecule?
A: The inhibition in vivo at 30 mg/kg was 71%.

Q: And the ED50 [11]?
A: Its ED50 is 60 mg/kg.

Q: With COc1ccc(-c2[nH]c(=O)sc2CCN(C)CCc2ccccc2)cc1 [LR 620, 4-p-methoxyphenyl-5-β-(N-methylphenylethylamino)-ethyl-4-thiazolin-2-one maleate] as the molecule, how does the selectivity ratio [1] read?
A: The selectivity ratio was 12.

Q: What about the ED50 [1] of the same molecule?
A: Its ED50 is 2 mg/kg.

Q: And the ED50 (nor-adrenalin; Rattus norvegicus, po, 1 h, read-out: α-adrenolytic activity lethal NA rat ED50)?
A: The ED50 was 5 mg/kg.

Q: What about the LD50 [2] of the same molecule?
A: The LD50 was 100 mg/kg.

Q: And the ED30 ([10]; 1 h, ip, one hour before carrageen, read-out: Anti-inflammatory activity carrageenin oedema rat ED30)?
A: The ED30 was 36 mg/kg.

Q: And the inhibition in vivo at 26 mg/kg [3]?
A: The inhibition in vivo at 26 mg/kg was 0%.

Q: What about the IC50 [4] of the same molecule?
A: Its IC50 is 650 mg/L.

Q: And the inhibition in vivo at 26 mg/kg [5]?
A: Its inhibition in vivo at 26 mg/kg is 20%.

Q: What about the “Spontaneous motility inhibition mouse, percentage activity (ED50 lacking)” value ([6]; 26 mg/kg os) of the same molecule?
A: Its value is 0%.

Q: And the LD50 [7]?
A: The LD50 was 24 mg/kg.

Q: And the EC30 (isolated rabbit atrium)?
A: The EC30 was 1 mg/L.

Q: What about the “TD” value (isolated rabbit atrium; isolated rabbit atrium) of the same molecule?
A: Its value is 30 µg/mL.

Q: What about the selectivity ratio [8] of the same molecule?
A: Its selectivity ratio is 30.

Q: And the responders at 10 mg/kg [9, 12]?
A: The responders at 10 mg/kg was 0%.

Q: And the inhibition in vivo at 10 mg/kg [9, 13]?
A: The inhibition in vivo at 10 mg/kg was 0%.
